Measured values reported in patent publication EP2758042B1, “STABLE, LOW-TOXICITY, STERILIZABLE COMPOSITION FOR OPHTHALMIC DYING” (Arcadophta, priority 2011, dated 2013).

Key:
[1] = tested on: cellules rétiniennes épithéliales ARPE-19; test: Cytolysis after 30 min or 5 min exposure (Example 4); type: cell-based
Method: (§1) Dans cet essai, on évalue également l'influence de la présence d'eau lourde dans les solutions sur leur cytotoxicité vis-à-vis de cellules rétiniennes épithéliales ARPE-19 fournies par ATCC, dans les mêmes conditions générales que dans l'exemple 1.
(§2) Les cellules sont exposées aux solutions 30 minutes dans une première série d'essais, et cinq minutes dans une deuxième série d'essais. Des mesures de cytolyse sont réalisées 1,5 h et 48 h après ce traitement.
(§3) Les mêmes mesures sont effectuées à titre de comparaison sur composition de Monoblue® 0,15% commercialisée par la société Arcadophta, Toulouse, France, sur une solution d'eau oxygénée 100mM et sur une solution saline d'irrigation intraoculaire (BSS).

[2] = tested on: cellules rétiniennes épithéliales ARPE-19; test: Number of cells after exposure (Example 4); type: cell-based
Method: as §1, §2, §3

[3] = Exposition 5 min, culture 48 h après exposition
[4] = Exposition 30 min, culture 1 h30 après exposition

eau oxygénée [H2O2 100mM] was tested. Which “% Cellules cytolysées Moyenne” value [1, 3] did it give?
Its value is 88,3%.

What about the “% Cellules cytolysées Moyenne” value [1, 4] of the same substance?
The value was 73,63%.

And the “Nombre de cellules Moyenne” value [2, 3]?
Its value is 129,00.

And the “Nombre de cellules Moyenne” value [2, 4]?
The value was 29,33.
